#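 Each compound was tested at five concentrations against cells in 96-well plates for 48 hours. Abbreviation: GI50, concentration required for 50% inhibition of growth.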 Active and inactive are the calls of the source. Cut-off read from the data, not from the text of the source: active = GI50 up to about 1.1 µM and inactive = higher.
# How the values were obtained:
# Assay in all cases: DTP human tumour cell line panel, 48 h
# 786-0 = system: 786-0
# A498 = system: A498
# A549 = system: A549
# ACHN = system: ACHN
# BT-549 = system: BT-549
# CAKI-1 = system: CAKI-1
# DU-145 = system: DU-145
# EKVX = system: EKVX
# HCT-116 = system: HCT-116
# HCT-15 = system: HCT-15
# HOP-62 = system: HOP-62
# HOP-92 = system: HOP-92
# HT-29 = system: HT-29
# Hs-578T = system: Hs-578T
# IGROV-1 = system: IGROV-1
# K562 = system: K562
# KM12 = system: KM12
# LOX IMVI = system: LOX IMVI
# M14 = system: M14
# MDA-MB-231 = system: MDA-MB-231
# MDA-MB-435 = system: MDA-MB-435
# MDA-N = system: MDA-N
# MOLT-4 = system: MOLT-4
# Malme-3M = system: Malme-3M
# NCI-H226 = system: NCI-H226
# NCI-H23 = system: NCI-H23
# NCI-H460 = system: NCI-H460
# NCI-H522 = system: NCI-H522
# NCI/ADR-RES = system: NCI/ADR-RES
# OVCAR-3 = system: OVCAR-3
# OVCAR-4 = system: OVCAR-4
# OVCAR-5 = system: OVCAR-5
# OVCAR-8 = system: OVCAR-8
# PC-3 = system: PC-3
# RXF 393 = system: RXF 393
# SF-268 = system: SF-268
# SF-295 = system: SF-295
# SK-MEL-28 = system: SK-MEL-28
# SK-MEL-2 = system: SK-MEL-2
# SK-MEL-5 = system: SK-MEL-5
# SN12C = system: SN12C
# SNB-19 = system: SNB-19
# SR = system: SR
# SW-620 = system: SW-620
# T47D = system: T47D
# TK-10 = system: TK-10
# U-251 = system: U-251
# UACC-257 = system: UACC-257
# UACC-62 = system: UACC-62
# UO-31 = system: UO-31
# CCRF-CEM = system: CCRF-CEM
# COLO 205 = system: COLO 205
# HCC 2998 = system: HCC 2998
# HL-60 = system: HL-60
# MCF7 = system: MCF7
# RPMI-8226 = system: RPMI-8226
# SF-539 = system: SF-539
# SK-OV-3 = system: SK-OV-3
# SNB-75 = system: SNB-75
structure (smiles),measurement,setting,value
CC(CCC(=O)O)(c1ccc(O)cc1)c1ccc(O)cc1,GI50,786-0,> 100 µM (inactive)
same,GI50,A498,> 100 µM (inactive)
same,GI50,A549,> 100 µM (inactive)
same,GI50,ACHN,> 100 µM (inactive)
same,GI50,BT-549,> 100 µM (inactive)
same,GI50,CAKI-1,> 100 µM (inactive)
same,GI50,DU-145,> 100 µM (inactive)
same,GI50,EKVX,> 100 µM (inactive)
same,GI50,HCT-116,> 100 µM (inactive)
same,GI50,HCT-15,> 100 µM
same,GI50,HOP-62,> 100 µM (inactive)
same,GI50,HOP-92,> 100 µM (inactive)
same,GI50,HT-29,> 100 µM (inactive)
same,GI50,Hs-578T,> 100 µM (inactive)
same,GI50,IGROV-1,> 100 µM (inactive)
same,GI50,K562,> 100 µM (inactive)
same,GI50,KM12,> 100 µM (inactive)
same,GI50,LOX IMVI,> 100 µM (inactive)
same,GI50,M14,> 100 µM (inactive)
same,GI50,MDA-MB-231,> 100 µM (inactive)
same,GI50,MDA-MB-435,> 100 µM (inactive)
same,GI50,MDA-N,> 100 µM (inactive)
same,GI50,MOLT-4,> 100 µM (inactive)
same,GI50,Malme-3M,> 100 µM (inactive)
same,GI50,NCI-H226,> 100 µM (inactive)
same,GI50,NCI-H23,> 100 µM (inactive)
same,GI50,NCI-H460,> 100 µM (inactive)
same,GI50,NCI-H522,> 100 µM (inactive)
same,GI50,NCI/ADR-RES,> 100 µM (inactive)
same,GI50,OVCAR-3,> 100 µM (inactive)
same,GI50,OVCAR-4,> 100 µM (inactive)
same,GI50,OVCAR-5,> 100 µM (inactive)
same,GI50,OVCAR-8,> 100 µM (inactive)
same,GI50,PC-3,> 100 µM (inactive)
same,GI50,RXF 393,> 100 µM (inactive)
same,GI50,SF-268,> 100 µM (inactive)
same,GI50,SF-295,> 100 µM (inactive)
same,GI50,SK-MEL-28,> 100 µM (inactive)
same,GI50,SK-MEL-2,> 100 µM (inactive)
same,GI50,SK-MEL-5,> 100 µM (inactive)
same,GI50,SN12C,> 100 µM (inactive)
same,GI50,SNB-19,> 100 µM (inactive)
same,GI50,SR,> 100 µM (inactive)
same,GI50,SW-620,> 100 µM (inactive)
same,GI50,T47D,> 100 µM (inactive)
same,GI50,TK-10,> 100 µM (inactive)
same,GI50,U-251,> 100 µM (inactive)
same,GI50,UACC-257,> 100 µM (inactive)
same,GI50,UACC-62,> 100 µM (inactive)
same,GI50,UO-31,> 100 µM (inactive)
CS(=O)(=O)CC(=O)c1ccccc1,GI50,786-0,> 100 µM (inactive)
same,GI50,A498,> 100 µM (inactive)
same,GI50,A549,> 100 µM (inactive)
same,GI50,ACHN,> 100 µM (inactive)
same,GI50,BT-549,> 100 µM (inactive)
same,GI50,CCRF-CEM,> 100 µM (inactive)
same,GI50,COLO 205,> 100 µM (inactive)
same,GI50,DU-145,> 100 µM (inactive)
same,GI50,EKVX,> 100 µM (inactive)
same,GI50,HCC 2998,> 100 µM (inactive)
same,GI50,HCT-116,> 100 µM (inactive)
same,GI50,HCT-15,> 100 µM
same,GI50,HL-60,> 100 µM (inactive)
same,GI50,HOP-62,> 100 µM (inactive)
same,GI50,HT-29,> 100 µM (inactive)
same,GI50,Hs-578T,> 100 µM (inactive)
same,GI50,IGROV-1,> 100 µM (inactive)
same,GI50,K562,> 100 µM (inactive)
same,GI50,KM12,> 100 µM (inactive)
same,GI50,LOX IMVI,> 100 µM (inactive)
same,GI50,M14,> 100 µM (inactive)
same,GI50,MCF7,> 100 µM (inactive)
same,GI50,MDA-MB-435,> 100 µM (inactive)
same,GI50,MDA-N,> 100 µM (inactive)
same,GI50,MOLT-4,> 100 µM (inactive)
same,GI50,Malme-3M,> 100 µM (inactive)
same,GI50,NCI-H226,> 100 µM (inactive)
same,GI50,NCI-H23,> 100 µM (inactive)
same,GI50,NCI-H460,> 100 µM (inactive)
same,GI50,NCI-H522,> 100 µM (inactive)
same,GI50,NCI/ADR-RES,> 100 µM (inactive)
same,GI50,OVCAR-3,> 100 µM (inactive)
same,GI50,OVCAR-4,> 100 µM (inactive)
same,GI50,OVCAR-5,> 100 µM (inactive)
same,GI50,OVCAR-8,> 100 µM (inactive)
same,GI50,PC-3,> 100 µM (inactive)
same,GI50,RPMI-8226,> 100 µM (inactive)
same,GI50,RXF 393,> 100 µM (inactive)
same,GI50,SF-268,> 100 µM (inactive)
same,GI50,SF-295,> 100 µM (inactive)
same,GI50,SF-539,> 100 µM (inactive)
same,GI50,SK-MEL-28,> 100 µM (inactive)
same,GI50,SK-MEL-2,> 100 µM (inactive)
same,GI50,SK-MEL-5,> 100 µM (inactive)
same,GI50,SK-OV-3,> 100 µM (inactive)
same,GI50,SN12C,> 100 µM (inactive)
same,GI50,SNB-19,> 100 µM (inactive)
same,GI50,SNB-75,38.8 µM (inactive)
same,GI50,SR,> 100 µM (inactive)
same,GI50,SW-620,> 100 µM (inactive)
same,GI50,T47D,> 100 µM (inactive)
same,GI50,TK-10,> 100 µM (inactive)
same,GI50,U-251,> 100 µM (inactive)
same,GI50,UACC-257,> 100 µM (inactive)
same,GI50,UACC-62,> 100 µM (inactive)
same,GI50,UO-31,> 100 µM (inactive)
O=c1c2nc3ccccc3c(=O)n2ncn1-c1ccccc1Cl,GI50,786-0,> 100 µM (inactive)
same,GI50,A498,> 100 µM (inactive)
same,GI50,A549,> 100 µM (inactive)
same,GI50,ACHN,> 100 µM (inactive)
same,GI50,BT-549,> 100 µM (inactive)
same,GI50,CAKI-1,> 100 µM (inactive)
same,GI50,CCRF-CEM,> 100 µM (inactive)
same,GI50,COLO 205,> 100 µM (inactive)
same,GI50,DU-145,> 100 µM (inactive)
same,GI50,EKVX,> 100 µM (inactive)
same,GI50,HCC 2998,> 100 µM (inactive)
same,GI50,HCT-116,> 100 µM (inactive)
same,GI50,HCT-15,> 100 µM
same,GI50,HL-60,> 100 µM (inactive)
same,GI50,HOP-62,> 100 µM (inactive)
same,GI50,HOP-92,> 100 µM (inactive)
same,GI50,HT-29,> 100 µM (inactive)
same,GI50,Hs-578T,> 100 µM (inactive)
same,GI50,IGROV-1,> 100 µM (inactive)
same,GI50,K562,> 100 µM (inactive)
same,GI50,KM12,> 100 µM (inactive)
same,GI50,LOX IMVI,> 100 µM (inactive)
same,GI50,M14,> 100 µM (inactive)
same,GI50,MCF7,> 100 µM (inactive)
same,GI50,MDA-MB-231,> 100 µM (inactive)
same,GI50,MDA-MB-435,> 100 µM (inactive)
same,GI50,MDA-N,> 100 µM (inactive)
same,GI50,Malme-3M,> 100 µM (inactive)
same,GI50,NCI-H226,> 100 µM (inactive)
same,GI50,NCI-H23,> 100 µM (inactive)
same,GI50,NCI-H460,> 100 µM (inactive)
same,GI50,NCI-H522,> 100 µM (inactive)
same,GI50,OVCAR-3,> 100 µM (inactive)
same,GI50,OVCAR-4,> 100 µM (inactive)
same,GI50,OVCAR-5,> 100 µM (inactive)
same,GI50,OVCAR-8,> 100 µM (inactive)
same,GI50,PC-3,> 100 µM (inactive)
same,GI50,RPMI-8226,> 100 µM (inactive)
same,GI50,SF-268,> 100 µM (inactive)
same,GI50,SF-295,> 100 µM (inactive)
same,GI50,SF-539,> 100 µM (inactive)
same,GI50,SK-MEL-28,> 100 µM (inactive)
same,GI50,SK-MEL-2,> 100 µM (inactive)
same,GI50,SK-MEL-5,> 100 µM (inactive)
same,GI50,SK-OV-3,> 100 µM (inactive)
same,GI50,SN12C,> 100 µM (inactive)
same,GI50,SNB-19,> 100 µM (inactive)
same,GI50,SNB-75,> 100 µM (inactive)
same,GI50,SR,> 100 µM (inactive)
same,GI50,SW-620,> 100 µM (inactive)
same,GI50,T47D,> 100 µM (inactive)
same,GI50,TK-10,> 100 µM (inactive)
same,GI50,U-251,> 100 µM (inactive)
same,GI50,UACC-257,> 100 µM (inactive)
same,GI50,UACC-62,> 100 µM (inactive)
same,GI50,UO-31,> 100 µM (inactive)
